“Also recorded” adds a separate entry of the source.
Columns and labels:
[1] = test system: CAM blood vessels (angiogenesis); test: Chorioallantoic membrane (CAM) model, drug-impregnated methylcellulose disk, image analysis of blood vessels (Example 1); type: in vivo, chicken; settings: for effect on angiogenesis / blood vessel growth vs control: 5 μg each per disk; for Blood Vessel Mean Length / Blood Vessel Number / Blood Vessel Length: 48 hours, mean ± SEM; for Blood Vessel Length: total length
Description: (§1) The CAM model utilized in these studies has been described by Mazo et al. (FASEB J. 13: A527, 1999). In brief, fertilized white broiler chicken eggs were obtained from a local hatchery and kept at room temperature for 48 hours. The outside of the shells were washed with soap, and placed in a 70% ethyl alcohol bath for 30 seconds. The eggs were incubated at 37° C. for three days and rotated 180 degrees three times daily. After incubation, the eggs were cleansed with an iodine solution and dried on a sterile tray. The eggs were cracked, and the embryos explanted into spherical plastic 100 mm×25 mm weigh boats. Specimens were covered with a plastic lid, placed in a humidified chamber at 37° C., and maintained for 48 to 72 hours until the CAM achieved at least a 10 mm diameter.
Methylcellulose disks were prepared as reported by Mazo et al. (FASEB J. 13: A527, 1999). […] These doses were selected on the basis of prior animal and culture studies (Zagon I. S. et al., Am. J Physiol, 270: R22-R32 (1996); McLaughlin P. J. et al., Int. J. Oncol., 14: 991-998 (1999)). An equivalent volume of distilled water was utilized as a control (n=13). Another series of experiments employed retinoic acid (RA: 1 μg) (Oikawa T. et al., Cancer Letters, 48: 157-162 (1989)) (n=12), VEGF (1 μg) (Wilting J. et al., Cell Tissue Res., 274: 163-174 (1993)) (n=10) and an equivalent volume of water (n=10) to validate the CAM model employed, and to provide an internal comparison to the potential angiogenic effects of OGF with other known angioactive agents. These methylcellulose solutions were placed on the tips of 3.2 mm diameter Teflon rods and allowed to dry at room temperature for 1 hour under a vacuum hood. The resultant dried disks were removed from the Teflon rods and placed on the outer third of the CAM. Only one disk was placed on each CAM. The eggs were returned to the incubator for an additional 48 hours of growth prior to examination by image analysis (Mazo J. E. et al., FASEB J., 13: A527 (1999)).
Image analysis was preformed as described previously (Mazo J. E. et al., FASEB J, 13: A527 (1999)). The location of the disk was located visually on the CAM. An identifying mark was placed in the center of the disk and 2 ml of a 10% intralipid solution was injected into the CAM obscuring the underlying yolk vessels and providing an opaque white background for the superficial vessels. The CAM was imaged on a three-chip digital camera (DKC 500 Sony, Tokyo, Japan), digitized, and exported to a personal computer (FIG. 1). A 100 mm^2 region was defined around the disk in which blood vessel quantitation was performed (Optimas 6.0, Mediacybernetics, Bothell, Wash.). Calibration was achieved by imaging a ruler placed adjacent to the embryo preparation.
All arteries and veins in this designated region centered on the applied disk were analyzed. From the digitized image, an overlying mask was created and all blood vessels were traced within the region in an unblinded manner by two different individuals. The total number of blood vessels were counted and their individual lengths added to obtain total blood vessel length.
Data were exported to Microsoft Excel (Excel 97, Microsoft, Redmond, Wash.). All values were expressed as the mean±standard error of the mean. Statistical analysis was performed using the SigmaStat 1.0 statistical software package (Jandel, San Rafael, Calif.). The Mann-Whitney rank sum test or the Student t test was used to compare continuous data. Either the Fischer exact test or χ^2 test were used for dichotomous data. A p value of less than 0.05 indicated statistical significance.

[2] = test system: CAM arteries and veins (angiogenesis); test: CAM assay with separate counting of arteries and veins (Example 2); type: in vivo, chick; settings: for Number of Vessels, Artery / Number of Vessels, Vein / Total Vessel Length, Artery / Total Vessel Length, Vein / Number of Vessels, A/V Ratio / Total Vessel Length, A/V Ratio: mean ± SEM
Description: The CAM assay described above was utilized. After 3 days of incubation, fertilized chick embryos were explanted and 3.2 mm methylcellulose disk containing a compound was placed onto the CAM surface. After 2 days of growth, the CAM arteries and veins were identified and imaged with a digital camera. Arteries and veins were identified based on the presence of vessel pulsation (arteries), color, and direction of blood flow within the vessels. The main artery was oriented vertically with flow originating inferiorly. A white 10% intralipid solution was injected into the CAM to enhance visualization. Total number and length of veins and arteries were counted and measured.

embryos = test: Embryo survival after placement of drug onto the CAM; type: in vivo, chicken; settings: 48 hours after placement of drug onto the CAM
Description: as §1
Methylcellulose disks were prepared as reported by Mazo et al. (FASEB J. 13: A527, 1999). […] These doses were selected on the basis of prior animal and culture studies (Zagon I. S. et al., Am. J Physiol, 270: R22-R32 (1996); McLaughlin P. J. et al., Int. J. Oncol., 14: 991-998 (1999)). An equivalent volume of distilled water was utilized as a control (n=13). […]

[3] = 1 μg per disk, another series of experiments

Compound: C=CCN1CC[C@]23c4c5ccc(O)c4O[C@H]2C(=O)CC[C@@]3(O)[C@H]1C5 [NAL, naloxone, reference compound]
- effect on angiogenesis / blood vessel growth vs control [1]: no effect on vessel growth

Compound: O=C1CC[C@@]2(O)[C@H]3Cc4ccc(O)c5c4[C@@]2(CCN3CC2CC2)[C@H]1O5 [Naltrexone, reference compound]
- Number of Vessels, Artery ([2]; 0.1 μg disk): 80 ± 6
- Number of Vessels, Vein ([2]; 0.1 μg disk): 83 ± 4
- Total Vessel Length, Artery ([2]; 0.1 μg disk): 112 ± 6 mm
- Total Vessel Length, Vein ([2]; 0.1 μg disk): 118 ± 6 mm
- Number of Vessels, Artery ([2]; 5.0 μg disk): 203 ± 7
- Number of Vessels, Vein ([2]; 5.0 μg disk): 97 ± 4
- Total Vessel Length, Artery ([2]; 5.0 μg disk): 174 ± 4 mm
- Total Vessel Length, Vein ([2]; 5.0 μg disk): 105 ± 2 mm
- effect on mean length of blood vessels ([2]; summary of Table II): decreased
- effect on total number and length of blood vessels in comparison to controls ([2]; summary of Table II): markedly increased both total number and length of all blood vessels
- effect on angiogenesis / blood vessel growth vs control [1]: Vessel inhibition is no longer seen
- effect on total blood vessel length vs control ([1]; 5 μg per disk): increased
- effect on total number of blood vessels vs control ([1]; 5 μg per disk): increased
- effect on mean blood vessel length vs control ([1]; 5 μg per disk, listed as NTX): decreased; also recorded: marked decrease

Compound: CC1=C(/C=C/C(C)=C/C=C/C(C)=C/C(=O)O)C(C)(C)CCC1 [Retinoic acid, retinoic acid, reference compound]
- Number of Vessels, A/V Ratio ([2]; dose not given): 1.5 ± 0.1
- Number of Vessels, Artery ([2]; dose not given): 60 ± 5
- Number of Vessels, Vein ([2]; dose not given): 39 ± 3
- Total Vessel Length, A/V Ratio ([2]; dose not given): 1.3 ± 0.1
- Total Vessel Length, Artery ([2]; dose not given): 83 ± 5 mm
- Total Vessel Length, Vein ([2]; dose not given): 66 ± 4 mm
- decrease in number of blood vessels compared to control group ([1]; 1 μg per disk): 60%
- decrease in total blood vessel length compared to control group ([1]; 1 μg per disk): 33%
- increase in mean blood vessel length relative to control group ([1]; 1 μg per disk): 75%
- Blood Vessel Mean Length [1, 3]: 2.07 ± 0.13 mm
- Blood Vessel Number [1, 3]: 79 ± 10
- Blood Vessel Length [1, 3]: 153 ± 11 mm

Compound: VEGF
- Number of Vessels, A/V Ratio ([2]; 0.2 μg disk): 1.3 ± 0.1
- Number of Vessels, Artery ([2]; 0.2 μg disk): 83 ± 5
- Number of Vessels, Vein ([2]; 0.2 μg disk): 75 ± 11
- Total Vessel Length, A/V Ratio ([2]; 0.2 μg disk): 1.2 ± 0.1
- Total Vessel Length, Artery ([2]; 0.2 μg disk): 117 ± 3 mm
- Total Vessel Length, Vein ([2]; 0.2 μg disk): 109 ± 14 mm
- Number of Vessels, A/V Ratio ([2]; 1.0 μg disk): 2.2 ± 0.2
- Number of Vessels, Artery ([2]; 1.0 μg disk): 248 ± 13
- Number of Vessels, Vein ([2]; 1.0 μg disk): 120 ± 7
- Total Vessel Length, A/V Ratio ([2]; 1.0 μg disk): 1.5 ± 0.2
- Total Vessel Length, Artery ([2]; 1.0 μg disk): 173 ± 8 mm
- Total Vessel Length, Vein ([2]; 1.0 μg disk): 117 ± 5 mm
- decrease in mean blood vessel length in comparison to control ([1]; 1 μg per disk): 33%
- effect on blood vessel growth vs control ([1]; 1 μg per disk): excitatory effect on blood vessel growth
- effect on calculated mean vessel length vs control ([1]; 1 μg per disk): decreased
- effect on number of blood vessels vs control ([1]; 1 μg per disk): markedly increased
- effect on total length of blood vessels vs control ([1]; 1 μg per disk): marked increase
- increase in total vessel length in comparison to control ([1]; 1 μg per disk): 22%
- increase in vessel number in comparison to control ([1]; 1 μg per disk): 83%
- Blood Vessel Mean Length [1, 3]: 0.79 ± 0.02 mm
- Blood Vessel Number [1, 3]: 358 ± 16
- Blood Vessel Length [1, 3]: 280 ± 7 mm

Compound: [Met^5]-enkephalin [OGF]
- toxicity (embryo survival) (embryos): all embryos survived
- Number of Vessels, A/V Ratio ([2]; 1.0 μg disk): 1.1 ± 0.2
- Number of Vessels, Artery ([2]; 1.0 μg disk): 53 ± 5
- Number of Vessels, Vein ([2]; 1.0 μg disk): 56 ± 8
- Total Vessel Length, A/V Ratio ([2]; 1.0 μg disk): 1.2 ± 0.2
- Total Vessel Length, Artery ([2]; 1.0 μg disk): 84 ± 5 mm
- Total Vessel Length, Vein ([2]; 1.0 μg disk): 81 ± 11 mm
- Number of Vessels, A/V Ratio ([2]; 5.0 μg disk): 1.6 ± 0.1
- Number of Vessels, Artery ([2]; 5.0 μg disk): 79 ± 4
- Number of Vessels, Vein ([2]; 5.0 μg disk): 51 ± 2
- Total Vessel Length, A/V Ratio ([2]; 5.0 μg disk): 1.3 ± 0.1
- Total Vessel Length, Artery ([2]; 5.0 μg disk): 107 ± 4 mm
- Total Vessel Length, Vein ([2]; 5.0 μg disk): 82 ± 3 mm
- effect on artery/vein ratios for vessel number and length ([2]; summary of Table II): decreased artery/vein ratios
- effect on total number and length of blood vessels in comparison to controls ([2]; summary of Table II): decreased total number and length of blood vessels
- effect on angiogenesis / blood vessel growth vs control [1]: blood vessel growth was suppressed; also recorded: marked inhibitory effect on angiogenesis
- decrease in number of blood vessels in comparison to controls ([1]; 5 μg per disk): 35%
- decrease in total blood vessel length in contrast to control ([1]; 5 μg per disk): 20%
- effect on mean blood vessel length vs control ([1]; 5 μg per disk): significantly increases
- effect on total blood vessel length vs control ([1]; 5 μg per disk): significantly inhibited
- effect on total number of blood vessels vs control ([1]; 5 μg per disk): significantly decreases
- increase in mean blood vessel length from control values ([1]; 5 μg per disk): 23%
- Blood Vessel Number ([1]; 5 μg per disk, 100 mm^2 region around disk): 102 ± 11
- Blood Vessel Mean Length ([1]; 5 μg per disk, 100 mm^2 region): 1.81 ± 0.13 mm
- Blood Vessel Length ([1]; 5 μg per disk, 100 mm^2 region): 179 ± 12 mm

From patent publication US20010046968A1, “Opioid growth factor modulates angiogenesis” (priority 2000, published 2001)
